What was measured:
[1] = Inhibition of Cryptococcus neoformans beta-carbonic anhydrase preincubated for 15 mins by stopped-flow CO2 hydration assay
[2] = Inhibition of Candida glabrata beta-carbonic anhydrase preincubated for 15 mins by stopped-flow CO2 hydration assay; set-up: species or system Nakaseomyces glabratus
[3] = Inhibition of Malassezia globosa beta-carbonic anhydrase preincubated for 15 mins by stopped-flow CO2 hydration assay
[4] = Inhibition of Drosophila melanogaster beta-carbonic anhydrase preincubated for 15 mins by stopped-flow CO2 hydration assay
[5] = Inhibition of Mycobacterium tuberculosis beta-carbonic anhydrase Rv3588 preincubated for 15 mins by stopped-flow CO2 hydration assay
[6] = Inhibition of Flaveria bidentis beta-carbonic anhydrase preincubated for 15 mins by stopped-flow CO2 hydration assay
[7] = Inhibition of Mycobacterium tuberculosis beta-carbonic anhydrase Rv3273 preincubated for 15 mins by stopped-flow CO2 hydration assay
[8] = Inhibition of Candida albicans beta-carbonic anhydrase preincubated for 15 mins by stopped-flow CO2 hydration assay
[9] = target: T1, Beta-carbonic anhydrase 1 (Mycobacterium tuberculosis, UniProt P9WPJ7); experiment: Inhibition of Mycobacterium tuberculosis beta-carbonic anhydrase Rv1284 preincubated for 15 mins by stopped-flow CO2 hydration assay
T1 sequence (P9WPJ7 whole entry): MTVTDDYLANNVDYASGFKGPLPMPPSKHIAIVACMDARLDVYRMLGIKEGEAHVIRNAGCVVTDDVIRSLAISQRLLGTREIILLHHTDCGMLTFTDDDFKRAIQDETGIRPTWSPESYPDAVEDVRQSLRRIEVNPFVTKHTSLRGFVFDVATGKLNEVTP

Carbonic anhydrase 1 = Carbonic anhydrase 1 (Homo sapiens, UniProt P00915)
Carbonic anhydrase 1, sequence (P00915 whole entry): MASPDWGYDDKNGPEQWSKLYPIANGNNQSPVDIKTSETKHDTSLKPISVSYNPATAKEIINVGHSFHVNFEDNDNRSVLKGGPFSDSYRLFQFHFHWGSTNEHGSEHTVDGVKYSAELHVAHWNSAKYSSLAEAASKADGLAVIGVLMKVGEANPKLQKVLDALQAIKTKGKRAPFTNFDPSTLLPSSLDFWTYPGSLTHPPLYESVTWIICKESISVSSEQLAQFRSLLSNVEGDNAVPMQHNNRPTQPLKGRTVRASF

Carbonic anhydrase 2 = Carbonic anhydrase 2 (Homo sapiens, UniProt P00918)

| SMILES | Ki [1] [µM] | Ki [2] [µM] | Ki [3] [µM] | Ki [4] [µM] | Ki [5] [µM] | Ki [6] [µM] | Ki [7] [µM] | Ki [8] [µM] | Ki [9] [µM] | Ki (Carbonic anhydrase 1) [µM] | Ki (Carbonic anhydrase 2) [µM] |
| --- | --- | --- | --- | --- | --- | --- | --- | --- | --- | --- | --- |
| CC(=O)Nc1nnc(S(N)(=O)=O)s1 [ACETAZOLAMIDE] | 0.01 | 0.011 | 74 | 0.049 | 0.01 | […] |  |  |  |  |  |
| CC(C)C[C@H](NC(=O)[C@H](Cc1ccccc1)NC(=O)c1cnccn1)B(O)O [BORTEZOMIB] | 4.7 | 5.73 | 3.24 | 11.3 | 4.2 | 8.45 | 6.5 | 1.12 | 7.3 | 1.29 | 1.16 |
| OB(O)c1ccccc1 [PHENYLBORONIC ACID] | > 100 | 100 | 89 | > 100 | 48 | 8 | 67 | > 100 | 58 | > 100 | > 100 |
